# Measured values as given in US8198273B2, “Compounds and methods for kinase modulation, and indications therefor” (Plexxikon Inc., priority 2009, dated 2012).
# How the values were obtained:
# CYP1A2 = target: T1, CYP1A2 (Homo sapiens, UniProt P05177); test: CYP1A2 inhibition (fluorescent substrate); type: in vitro ADME; settings: CYP1A2, CEC substrate; read-out: Cyp IC50 1A2
# T1 sequence (P05177 1-516): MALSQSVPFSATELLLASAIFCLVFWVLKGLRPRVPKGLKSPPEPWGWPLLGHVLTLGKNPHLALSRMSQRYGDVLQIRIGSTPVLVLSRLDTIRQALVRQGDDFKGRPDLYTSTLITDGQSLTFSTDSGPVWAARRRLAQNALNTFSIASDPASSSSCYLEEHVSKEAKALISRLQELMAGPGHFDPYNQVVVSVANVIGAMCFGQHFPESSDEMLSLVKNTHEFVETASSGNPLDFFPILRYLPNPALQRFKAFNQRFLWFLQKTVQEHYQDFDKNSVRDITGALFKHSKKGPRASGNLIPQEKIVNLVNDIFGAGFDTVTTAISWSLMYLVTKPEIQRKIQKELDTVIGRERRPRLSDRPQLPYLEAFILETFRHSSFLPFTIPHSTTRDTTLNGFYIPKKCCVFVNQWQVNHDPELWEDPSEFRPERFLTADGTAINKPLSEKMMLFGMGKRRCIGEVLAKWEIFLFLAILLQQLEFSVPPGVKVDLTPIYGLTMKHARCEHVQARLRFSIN
# Summary of the method: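 IC50 values come from plotting product fluorescence against compound concentration; inhibition lowers formation of the fluorescent metabolite. Ten-point twofold dilutions in co-factor mix were held 10 minutes at 37 °C before the enzyme reaction, also run at 37 °C.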
# c-Raf-1 = c-Raf-1 (Homo sapiens, UniProt P04049); test: c-Raf-1 biochemical kinase inhibition (AlphaScreen, biotin-MEK1 substrate); settings: 100 μM ATP
# Sequence of c-Raf-1 (P04049 whole entry): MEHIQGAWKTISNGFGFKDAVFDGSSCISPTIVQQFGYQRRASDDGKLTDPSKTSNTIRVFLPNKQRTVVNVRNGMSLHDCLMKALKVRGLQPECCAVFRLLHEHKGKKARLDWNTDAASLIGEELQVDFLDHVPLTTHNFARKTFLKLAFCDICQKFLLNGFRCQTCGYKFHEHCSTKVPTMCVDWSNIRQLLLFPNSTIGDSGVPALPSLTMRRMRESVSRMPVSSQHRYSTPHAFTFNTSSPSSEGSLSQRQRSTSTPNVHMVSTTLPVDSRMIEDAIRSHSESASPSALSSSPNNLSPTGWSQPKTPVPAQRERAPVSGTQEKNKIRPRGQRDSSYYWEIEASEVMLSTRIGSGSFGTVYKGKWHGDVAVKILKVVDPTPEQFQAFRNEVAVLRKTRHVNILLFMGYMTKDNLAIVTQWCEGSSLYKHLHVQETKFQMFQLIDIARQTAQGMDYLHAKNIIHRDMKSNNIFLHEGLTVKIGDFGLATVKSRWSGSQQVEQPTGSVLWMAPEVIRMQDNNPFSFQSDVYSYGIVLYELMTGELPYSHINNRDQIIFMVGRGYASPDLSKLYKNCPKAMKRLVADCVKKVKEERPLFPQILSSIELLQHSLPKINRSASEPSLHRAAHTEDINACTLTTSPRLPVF
# Summary of the method: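 IC50 derived from AlphaScreen signal plotted against compound concentration. Final ATP 100 μM; 3 h incubation at room temperature. Eight-point 3-fold dilution series prepared from a 0.1 mM DMSO stock.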
# [1] = test system: A375 melanoma cells (B-Raf V600E); test: A375 cell growth inhibition (ATPlite); type: cell-based; settings: Homo sapiens, A-375, 72 h; A375, 3 days incubation
# Summary of the method: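 Cells plated overnight, then exposed 3 days at 37° C to 8-point 1:3 compound dilutions topping at 10 μM final. Viability read as ATPlite luminescence, proportional to cell number; IC50 from luminescence versus concentration.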
structure (smiles),measurement,setting,value
"CCCS(=O)(=O)Nc1ccc(F)c(C(=O)c2c[nH]c3ncc(-c4ccc(N(C)C)nc4)cc23)c1F [P-2229, Propane-1-sulfonic acid {3-[5-(6-dimethylamino-pyridin-3-yl)-1H-pyrrolo[2,3-b]pyridine-3-carbonyl]-2,4-difluoro-phenyl}-amide]",IC50,CYP1A2,> 10000 nM
same,IC50,c-Raf-1,< 100 nM
same,IC50,[1],< 100 nM
